Data reported in ChEMBL document CHEMBL2311410, “Facile regioselective synthesis of novel bioactive thiazolyl-pyrazoline derivatives via a three-component reaction and their antimicrobial activity” (2013).

Assays:
Assay type in all cases: functional
Staphylococcus aureus = test: Antimicrobial activity against Staphylococcus aureus ATCC 29213 assessed as zone of inhibition after 24 hrs by agar well-diffusion method
Pseudomonas aeruginosa = test: Antimicrobial activity against Pseudomonas aeruginosa ATCC 27853 assessed as zone of inhibition after 24 hrs by agar well-diffusion method
Escherichia coli = test: Antimicrobial activity against Escherichia coli ATCC 25922 assessed as zone of inhibition after 24 hrs by agar well-diffusion method

Compound	inhibition zone (IZ) (Staphylococcus aureus) [mm]	inhibition zone (IZ) (Pseudomonas aeruginosa) [mm]	inhibition zone (IZ) (Escherichia coli) [mm]
COc1ccc(C2=NN(c3nc(-c4ccccc4)cs3)C(c3ccc(C)cc3)C2)cc1 (configuration not stated)	7	17	–
GENTAMICIN	23	21	22
Clc1ccc(C2C3CCc4ccccc4C3=NN2c2nc(-c3ccccc3)cs2)cc1 (configuration not stated)	–	9	7
COc1ccc(C2=NN(c3nc(-c4ccccc4)cs3)C(c3ccc(OC)cc3)C2)cc1 (configuration not stated)	–	18	8
Cc1ccc(C2=NN(c3nc(-c4ccccc4)cs3)C(c3ccc(C)cc3)C2)cc1 (configuration not stated)	7	16	7
COc1ccc(C2C3CCc4ccccc4C3=NN2c2nc(-c3ccccc3)cs2)cc1 (configuration not stated)	8	9	–
c1ccc(C2=NN(c3nc(-c4ccccc4)cs3)C(c3cccs3)C2)cc1 (configuration not stated)	9	19	–
COc1ccc(C2CC(c3ccccc3)=NN2c2nc(-c3ccccc3)cs2)cc1 (configuration not stated)	6	7	–
COc1ccc(C2CC(c3ccc(C)cc3)=NN2c2nc(-c3ccccc3)cs2)cc1 (configuration not stated)	–	19	7
c1ccc(-c2csc(N3N=C4c5ccccc5CCC4C3c3cccs3)n2)cc1 (configuration not stated)	–	16	8
